# Source: PubChem BioAssay AID1996
# Conditions: buffer; pH 7.4; 200.0 µM
row,solubility kinetic [µg/mL],SMILES
1,27.6,NCC(=O)Nc1ccc(Br)cc1
2,3.9,COC(=O)c1ccc(C(=O)OC)c(NC(=O)C(C)(C)C)c1
3,< 0.3,Cc1ccc(C(=O)Nc2cccc3cccnc23)cc1C
4,> 46.2,O=C(COC(=O)Cc1ccc(Cl)cc1)NCc1ccco1
5,4.1,Cc1ccc(NC(=O)/C=C2\NC(=O)CS2)cc1
6,43.8,COc1ccc(N2CC(C(=O)N3CCN(C)CC3)CC2=O)cc1 (centres undefined)
7,> 42.9,CCOC(=O)C(NCCOC)(NC(C)=O)C(F)(F)F (centres undefined)
8,17.3,COc1ccc(C(=O)COC(=O)CNC(=O)c2ccc(OC)cc2)cc1
9,> 41.6,Cn1cnc([N+](=O)[O-])c1Sc1ncnc2nc[nH]c12
10,3.7,NC(=O)c1ccc(NC(=O)CNC(c2ccccc2)c2ccccc2)cc1
11,> 39.8,CC(NC(=O)c1ccco1)C(=O)Nc1nccs1 (centres undefined)
12,> 39.5,Cc1ccc(C(=O)N2CCN(C)CC2)cc1[N+](=O)[O-]
13,0.6,Cc1ccc(Nc2nc(-c3cccnc3)nc3ccccc23)cc1
14,4.6,COc1cc(C(=O)Nc2ccccc2C(=O)Nc2ccccn2)cc(OC)c1OC
15,> 37,Cc1c(Cl)cccc1NC(=O)c1cccnc1
16,10.3,Cc1noc(C)c1C(=O)Nc1nc(-c2ccc(F)cc2)cs1
17,7,CC(=O)Nc1ccc(C(=O)OCC(=O)Nc2ccc(N3CCOCC3)cc2)cc1
18,> 30.9,CCC(CC)C(=O)NCc1cccnc1
19,11.6,Cc1ccc([N+](=O)[O-])c(OCCn2cnc3ccccc32)c1
20,32.4,N#Cc1ccc(COc2cccc3cccnc23)cc1
21,> 44,CC(=O)Nc1ccc(C(=O)COC(=O)C2CC2C)c(F)c1 (centres undefined)
22,> 50.3,CC(C)C(OC(=O)c1cccs1)C(=O)NCc1ccc(F)cc1 (centres undefined)

row,solubility kinetic [µg/mL],SMILES
1,33.2,COc1ccccc1C(=O)NC1CCCc2ccccc21 (centres undefined)
2,> 36.1,O=C(NN1CCOCC1)c1cccc(Cl)c1
3,> 41.7,S=C(NCc1ccc(Cl)cc1)Nc1ccncc1
4,27.5,Cc1ccc2oc(C(=O)NC3CCS(=O)(=O)C3)c(C)c2c1 (centres undefined)
5,0.5,CCOC(=O)c1sc(=NC(=O)c2ccc(Cl)s2)n(C)c1C
6,39.8,CCCc1nc2oc3ccccc3c(=O)c2c(=O)n1-c1ccc(C)cc1
7,6.7,COc1cccc(/C=C/C(=O)Nc2ccc3[nH]c(=O)[nH]c3c2)c1
8,32.9,CCOc1ccccc1/C=N/OCC(=O)NCc1ccc(F)cc1
9,39.1,CNC(=O)COC(=O)c1c2c(nc3ccccc13)CCC2
10,> 50.5,Cc1nnc(SCC(=O)c2c(N)n(C3CC3)c(=O)[nH]c2=O)n1C
11,4.2,O=C(c1ccc([N+](=O)[O-])cc1[N+](=O)[O-])N1CCc2ccccc21
12,> 43.4,O=C(Nc1ccc(N2CCOCC2)nc1)c1cccs1
13,27.4,COc1ccc(C2(c3ccc(OC)cc3)NC(=O)N(CC(=O)Nc3cc(C)on3)C2=O)cc1
14,> 71.8,O=C(O)CSc1nnc(-c2cccc(S(=O)(=O)N3CCOCC3)c2)n1-c1ccc(F)cc1
15,> 51,O=C(O)c1ccc(NC(=O)c2ccco2)c(NC(=O)c2ccco2)c1
16,> 48.5,CCOC(=O)c1sc(NC(=O)c2c(CC)noc2C)nc1C
17,15.5,CCOc1ncccc1C(=O)Nc1ncc(C)s1
18,3.3,CN(C)S(=O)(=O)c1ccc(C(=O)/C=C/c2cccnc2)cc1
19,> 48.6,O=C(Nc1nnc(Cc2ccc(Cl)cc2)s1)C1CCCO1 (centres undefined)
20,> 52.4,CCNC(=O)Nc1ccc(S(=O)(=O)Nc2cnc(C)nc2C)cc1
21,3,O=C(COC(=O)c1ccc2ccccc2c1O)NCc1ccccc1
22,> 68,Cc1ccc(C(=O)NCCc2nnc(SCC(=O)Nc3cccc(C(=O)O)c3)n2C)cc1

row,solubility kinetic [µg/mL],SMILES
1,> 49.5,O=C(Cc1ncc(C(F)(F)F)cc1Cl)NCc1cccnc1
2,9.1,CC(=O)c1ccc(Oc2nc3c(c(=O)n(C)c(=O)n3C)n2C)cc1
3,58.8,O=C(NCCCN1CCCC1=O)c1ccc(NS(=O)(=O)c2ccccc2)cc1
4,> 39.9,COc1ccc(Cc2n[nH]c(=S)n2N)cc1OC
5,31,Clc1cccc(OCCCCN2CCCCC2)c1
6,27.5,CCOc1ccc(C(=O)Nc2ccc(CN3CCOCC3)cc2)cc1Cl
7,> 51.2,[Br-].c1ccc(-c2c[n+]3c(n2-c2ccccc2)CCC3)cc1
8,> 44.3,O=C(N/N=C/C1CCCCC1)c1ccccc1-n1cccc1
9,> 35.7,O=C(NCc1ccco1)C(=S)N1CCCC1
10,> 51.8,O=C(NC(=S)Nc1ccc(CN2CCOCC2)cc1)c1ccco1
11,48.4,COc1cccc(N2CCC(N3CCN(C)C(CCO)C3)CC2)c1 (centres undefined)
12,33.7,Cc1ccc(N(CC(=O)Nc2cc(C)ccc2C)S(C)(=O)=O)cc1
13,> 48.1,O=C1C(Cl)=C(NCCN2CCOCC2)C(=O)c2ccccc21
14,> 47.3,O=C(O)CN(C1CCCCC1)S(=O)(=O)c1ccc(F)cc1
15,> 31.8,OCc1ccccc1N=Cc1cccnc1
16,> 38.6,N#Cc1cccc(NC(=O)CN2CCCCCC2)c1
17,> 47.9,CCOC(=O)N1CCN(C(=O)c2ccccc2NC(C)=O)CC1
18,36.2,O=C(c1ccccc1F)N1CCN=C1c1ccccc1
19,37.6,O=S(=O)(Cc1ccccc1)Nc1cccc(F)c1
20,32.9,CC(OC(=O)c1ccc(Cl)cc1O)C(=O)NCCC1=CCCCC1 (centres undefined)
21,< 0.3,COc1ccc(OC)c(NC(=O)c2nc3ccccc3s2)c1

# The remaining lines, values behind:
row,SMILES,solubility kinetic [µg/mL]
1,COCCOC(=O)c1[nH]c2c(c1C)C(=O)CC(c1ccc(OC)cc1)C2 (centres undefined),1.6
2,CS(=O)(=O)c1ccc(Cl)c(NC(=O)CN2CCN(C(=O)c3cccs3)CC2)c1,> 66.3
3,Cl.O=C(O)C1CCN(Cc2ccccn2)CC1,34.4
4,O=C(/C=C/NCc1cccnc1)c1ccc(Br)cc1,> 47.6
5,Cc1cc(C(=O)COC(=O)/C=C/c2ccc(F)cc2)c(C)n1C,6.2
6,Cn1c(Cc2ccccc2)nnc1SCC(=O)Nc1ccccc1,> 50.8
7,CC1CCCC(C)N1S(=O)(=O)c1ccc(Cl)cc1 (centres undefined),2.7
8,O=C(CN1CCCCC1)NC(=O)NC1CCCCC1,> 40.1
9,Cc1ccc(C(=O)O)cc1N1CCCC1=O,> 32.9
10,CCN(CC)C(=O)c1ccc(-c2nnc(OC)c3ccccc23)cc1,> 50.3
11,CCOC(=O)c1sc(NC(=O)c2sc(C)nc2C)nc1C,8.7
12,C=CCSc1nc2ccccc2c(=O)n1C1CCOC(C)(C)C1 (centres undefined),8.6
13,CC(C)CNS(=O)(=O)c1ccc(CCC(=O)NCCc2ccccc2)cc1,16.3
14,CC12CCC(C[N+](C)(C)C1)C2(C)C.[I-] (centres undefined),> 46.4
15,Cc1cc(C)c(C#N)c(N2CCN(c3ccc(F)cc3)CC2)n1,< 0.2
16,O=C(CN1C(=O)NC2(CCCC2)C1=O)NCc1ccco1,> 43.7
17,COc1cccc(/C=C/c2[nH]c(=O)[nH]c(=O)c2[N+](=O)[O-])c1O,> 45.8
18,CC(=O)N(C)c1ccc(NC(=S)NCC(C)C)cc1,> 41.9
19,COC(=O)c1c(C)[nH]c(C(=O)C(C)OC(=O)C2CC2C)c1C (centres undefined),> 46.1
20,COc1ccc([N+](=O)[O-])c(OC)c1C(=O)NC(=O)Nc1nc(C)nc(C)n1,> 56.4
21,CC(C)=CC(=O)Nc1cccc(S(=O)(=O)NC2=NCCCCC2)c1,> 52.4
22,O=C1NCCO1,> 13.1
23,Cc1cc(/C=C(\C#N)C(=O)OCC#N)c(C)n1CC(C)C,13.6
24,Cc1cc(=O)[nH]c2ccc(S(=O)(=O)NCc3ccccc3)cc12,2.5
25,C[C@H](NS(=O)(=O)c1ccccc1F)C(=O)OCC(=O)Nc1ccc2c(c1)OCCO2,> 65.8
26,Cc1ccccc1OCC(=O)N1CCc2ccccc2C1,38.6
27,NC(=NC(=O)c1ccc(OCC(F)(F)F)nc1)c1ccc(Cl)cc1,2

row,SMILES,solubility kinetic [µg/mL]
1,Cc1cc(C2(O)C(=O)Nc3ccccc32)ccc1F (centres undefined),> 38.6
2,O=C(Cc1cccs1)NCCc1csc(-c2ccccc2)n1,> 49.3
3,Cc1ccccc1C(=O)N1CCc2c([nH]c3ccccc23)C1C(F)(F)F (centres undefined),< 0.4
4,CCn1cc(C(=S)N2CCC(C(N)=O)CC2)c2ccccc21,38.7
5,O=C(NCC1CCCO1)c1cc(Br)c(Br)s1 (centres undefined),> 55.4
6,Cc1ccc(Nc2c([N+](=O)[O-])ccc3nonc23)c(C)c1,< 0.2
7,O=C(O)c1cc2[nH]c3c(c2cc1Cl)CCCC3,> 37.5
8,Cc1ccc(C(C)C)cc1S(=O)(=O)NC1CC(C)(C)NC(C)(C)C1,35.2
9,CCOc1ncccc1C(=O)Nc1cc(C(F)(F)F)ccc1N1CCOCC1,4.1
10,OCCCNc1ncnc2c1[nH]c1ccccc12,35.6
11,Cn1cccc1/C=N\NC(=O)C1COc2ccccc2O1 (centres undefined),> 42.8
12,NS(=O)(=O)c1ccc(S(=O)(=O)c2ccccc2)nc1,> 44.7
13,CCOc1ncccc1C(=O)OCC(=O)NCCCc1ccccc1,> 51.4
14,Cc1ccsc1C(=O)OCC(=O)N1CCc2ccccc2C1,34.6
15,Cl.OC(CN1CCOCC1)c1csc2ccccc12 (centres undefined),43.6
16,Cc1ccccc1-n1c(C)nc2ccsc2c1=O.Cl,> 43.9
17,CN(C)CCNC(=O)C(=O)Nc1cc2c3c(c1)CCN3C(=O)CC2,> 49.6
18,Cc1cc(NC(=O)CSc2nnc(-c3ccco3)n2C)no1,> 47.9
19,CCCN(C(=O)CSc1ncccn1)C1CCS(=O)(=O)C1 (centres undefined),> 49.4
20,CCCC(=O)Nc1nc(-c2ccc(Cl)s2)cs1,1.5
21,Cc1cc(C)c(S(=O)(=O)Cc2ccccc2)c(OC(C)C)n1,26
22,COc1ccccc1CC(=O)N1CCN(c2ccccc2)CC1,> 46.6
23,CC(C)(C)S(=O)(=O)c1cnc(N2CCOCC2)nc1N,32.8
24,Cc1nc(N)sc1-c1csc(Nc2cccc(O)c2)n1,34.1
25,Cc1ccc(S(=O)(=O)N2CCC[C@H]2C(=O)OCc2cc(=O)oc3cc(C)ccc23)cc1,7.3
26,CC(C)Cn1c(N)cc(=O)n(C)c1=O,22.2
27,O=C(c1cc2cc(Cl)ccc2[nH]1)N1CCN(c2ccccc2F)CC1,< 0.3
